Columns and labels:
MDA-MB-468 cells = experiment: Migration of MDA-MB-468 cells in modified Boyden chamber; assay type: cell-based, human; details: 18 h; for migration: pure peptide 100 μM
Experimental: The HB2 mammary epithelial cell line, a subclone of the MTSV-1.7 cell line, originating from the laboratory of Dr. J. Taylor-Papadimitriou (11) was used. The HB2 cells were cultured in DMEM supplemented with 10% FBS, 5 U/mi penicillin, 0.5 U/ml streptomycin, 2 mM glutamine, 10 μg/ml bovine insulin and 5 μg/ml hydrocortisone. The human mammary carcinoma cell lines MCF-7 and MDA-MB-468 were cultured in DMEM supplemented with 10% FBS, 5 U/ml penicillin, 0.5 U/ml streptomycin and 2 mM glutamine. The pH-experiments were done in MEM supplemented with 10 mM Tris, 0.5% BSA, 5 U/ml penicillin, 0.5 U/ml streptomycin and 2 mM glutamine. The pH 7.4-medium was further supplemented with 4 mM sodium bicarbonate whereas the pH 6.7-medium was not. All cells were incubated at 37° C. in 95% air and 5% CO2.
Cell migration analyses were performed in a modified Boyden chamber with a polycarbonate membrane (10 μm thick with a porous diameter of 8.0 μm) separating the two chambers (Transwell®; Costar, Cambridge, Mass.). As indicated in some experiments the membranes were coated with collagen by adding collagen-I (10 μg/ml) diluted in 0.25% acetic acid to the upper chamber for 1 h at 37° C., after which it was washed three times with PBS. Each experiment was initiated by detaching the cells by Versene treatment for 10-20 min at 37° C., washed, and re-suspended as a single cell suspension in serum-free DMEM medium supplemented with 0.5% BSA. Together with the indicated agonist a 0.2 ml cell suspension (containing 25,000 MDA-MB-468 or 50,000 HB2 cells) was then added to the upper chamber of the transwell. The lower chamber was filled with 0.6 ml serum-free but BSA-containing DMEM medium supplemented with 1 ng/ml of the chemoattractant IGF-I. As a control, IGF-I was excluded in some wells in each separate experiment. The cells were allowed to migrate in the Boyden chamber for 18 h at 37° C. in a humidified atmosphere of 95% air and 5% CO2. The experiments were terminated by removing the non-migratory cells with a cotton-tipped applicator from the upper surface of the membranes. The remaining cells on the lower surface that had migrated through the membrane were stained for 20 min with 0.5% crystal violet diluted in 20% methanol/80% water. After washing the membranes the number of stained cells per membrane and well was counted in an inverted microscope. The value from each separate experiment represents the median value of three individual wells.
Peptide-induced effects on MDA-MB-468 tumour cell migration and their content of F-actin. (A) The cells were allowed to migrate for 18 h in the absence or presence of the indicated peptides (100 μM) The data in panel A are expressed as means±SEM of 8 separate experiments, each performed in triplicate. * p<0.05. (B) The cells were allowed to adhere to collagen I-coated cover glasses for 18h in the absence or presence of peptide 175 (100 μM). The cells were then stained with Alexa488-Phalloidin as described in the methods section. The illustrated micrographs are representative of 5 separate experiments.
Effects of peptide 175 modifications on its ability to induce MDA-MB-468 tumour cell adhesion and migration. (A) The cells were allowed to adhere for 60 min to collagen-I coated wells in the absence or presence of peptide 175, three stepwise N-terminal deletion variants of peptide 175 or a formylated version of the tested hexapeptide derived from peptide 175. The amounts of adhesive cells were analyzed as described in the methods and the results are given as means±SEM of 6 separate experiments. (B and C) The cells were allowed to migrate for 18 h in the absence or presence of 1 or 10 μM of peptide 175 (B) or the formylated hexapeptide (C). The data are given as means±SEM of 6 separate experiments, each performed in triplicate. * p<0.05, p<0.01.
Effects of Frz-5 receptor blocking and reduced pH on the abilities of the formylated hexapeptide and Wnt-5a to inhibit tumour cell migration. […]

[1] = tested on: Wnt-5a antisense HB2 cells; experiment: Adhesion of Wnt-5a antisense HB2 cells to collagen I (MTS); assay type: cell-based, human; details: for adhesion to collagen I, concentration-dependent analysis: 95% pure peptides, different concentrations
Experimental: The adhesion assay was carried out as previously described (12). Briefly, cells were serum-depleted for 16 h, detached with Versene and allowed to adhere as single cells to collagen I for 60 (MDA-MB-468) or 90 min (HB2) at 37° C. Non-adherent cells were removed by washing with PBS. The adherent cells were incubated with a (3-(4,5-dimethylthiazol-2-yl)-5-(3-carboxymethoxyphenyl)-2-(-4-sulfophenyl)-2H-tetrazolium, inner salt (MTS) dye reduction assay (Promega, Madison, Wis.) and absorbance was measured at 490 nm using a Fluostar microplate reader from BMG LabTechnologies (GmbH, Offenberg, Germany). In each experiment a single value was calculated based on the mean of adhesion from six separate wells after the adhesion to plastic alone had been subtracted. The CM used as a control in the adhesion assays was obtained from confluent Wnt-5a overexpressing HB2 cells (for experiments with Wnt-5a antisense HB2 cells) or Wnt-5a overexpressing MCF-7 cells (for MDA-MB-468 cells) stably transfected with a vector over-expressing Wnt5a. A collected CM was always used within three days.
To control the specificity of the CM, it was incubated with either the Wnt-5a or a control Ab for 45 min at 37° C. Subsequently 10 μl Protein A Sepharose was added for 30 min and after the protein A-bound antibodies were collected by centrifugation the remaining supernatants were used for the experiments.
Effects of crude peptides on adhesion of Wnt-5a antisense HB2 cells to collagen. (A) Single cells were allowed to adhere for 90 min in the absence or presence of the indicated crude peptides (100 μM). The amounts of adhesive cells were analyzed as described in the methods and the results are given as means±SEM of 7 separate experiments. (B) Adhesion of Wnt-5a antisense HB2 cells to collagen was analyzed after pre-treating the cells with an anti-[…]1-integrin Ab for 45 min before letting them adhere for 90 min in the absence or presence of peptides 171 or 175 (100 μM) or CM. The amounts of adhesive cells were analyzed as described in the methods and the results are given as means±SEM of 6 separate experiments (C) The diagram outlines a control of the presently used CM. The cells were allowed to adhere to collagen I-coated wells in the absence or presence of normal CM or Wnt-5a depleted CM. The amounts of adhesive cells were analyzed as described in the methods and the results are given as means±SEM of 6 separate experiments. Ns=not significant, * p<0.05, ** p<0.01 and *** p<0.001.
Effects of the selected and pure peptides on the ability of Wnt-5a antisense HB2 cells to adhere and migrate. (A-E) The ability of the cells to adhere to collagen type I-coated wells was analyzed as previously described for FIG. 2 in the absence or presence of different concentrations of the indicated peptide. (F) Effect of the indicated peptides on migration of Wnt-5a antisense HB2 in a transwell migration assay. The cells were allowed to migrate for 18 h in the absence or presence of 100 μM peptide or 0.4 μg/ml of recombinant Wnt5a. The data are given as means±SEM of 6-7 separate experiments, each performed in triplicate. * p<0.05 and ** p<0.01.

| Sequence | migration (MDA-MB-468 cells) | adhesion to collagen I, concentration-dependent analysis [1] | motility (migration) (MDA-MB-468 cells; 10 μM) | adhesion to collagen after pre-treatment with blocking anti-β1-integrin Ab ([1]; anti-β1-integrin Ab 45 min at 37° C., peptide 100 μM, 90 min) | adhesion to collagen I ([1]; crude peptide (65% pure) 100 μM, 90 min) |
| --- | --- | --- | --- | --- | --- |
| ADFRKVGDALKEKYD [peptide 169, Wnt-5a aa 242-256] | significantly decreased the migration | increased when tested at higher purity |  |  |  |
| NKTSEGMDGCEL (Human) [peptide 175, Wnt-5a aa 311-322] | significantly decreased the migration | most effective | significantly impaired the motility |  |  |
| SQLAGLSQGQKKL [peptide 171, Wnt-5a aa 55-67; negative control] | no statistically significant effect | lost or less consistent |  | most likely β1-integrin-dependent | significant effect on adhesion |

— US20080207521A1, “PEPTIDE LIGAND TO IMPAIR CANCER CELL MIGRATION” (priority 2005, published 2008)
